Data as given in patent US20090247559A1 (Exelixis, Inc., priority 2007, published 2009).
Like-named read-outs stand apart in the source and are kept apart here.

Tests used:
CDC7 = CDC7 (Homo sapiens, UniProt O00311); experiment: CDC7 inhibition, biochemical chemiluminescence assay (Kinase Glo, IC50 determination)
Summary of the method: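 CDC7 enzyme preincubated with compound 10 min at ambient temperature, then ATP mix in Tris Base added; reaction 90 min at 24-27 °C. Remaining ATP quantified by Kinase Glo luminescence to give IC50.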

CK2 = CK2 (Homo sapiens, UniProt P68400); experiment: CK2 inhibition, biochemical chemiluminescence holoenzyme assay (Kinase Glo, IC50 determination)
CK2, sequence (P68400 whole entry): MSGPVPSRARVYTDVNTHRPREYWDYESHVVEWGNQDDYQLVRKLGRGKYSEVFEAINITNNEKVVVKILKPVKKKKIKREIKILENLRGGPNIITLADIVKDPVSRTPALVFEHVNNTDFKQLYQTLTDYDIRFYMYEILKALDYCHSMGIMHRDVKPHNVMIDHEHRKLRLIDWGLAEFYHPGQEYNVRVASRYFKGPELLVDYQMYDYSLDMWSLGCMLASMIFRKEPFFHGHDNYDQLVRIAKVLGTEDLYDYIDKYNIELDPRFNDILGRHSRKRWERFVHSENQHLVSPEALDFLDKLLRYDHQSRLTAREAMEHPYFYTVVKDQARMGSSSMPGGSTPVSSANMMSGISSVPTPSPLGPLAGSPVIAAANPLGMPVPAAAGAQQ
CK2, sequence (P67870 whole entry partner): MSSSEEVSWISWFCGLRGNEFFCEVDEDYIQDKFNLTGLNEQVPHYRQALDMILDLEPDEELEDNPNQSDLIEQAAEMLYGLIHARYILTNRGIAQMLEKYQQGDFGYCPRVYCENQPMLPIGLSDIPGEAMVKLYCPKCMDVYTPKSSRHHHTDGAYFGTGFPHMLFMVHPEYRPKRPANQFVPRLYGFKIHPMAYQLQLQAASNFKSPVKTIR
Summary of the method: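 Holoenzyme CK2 assay; compounds pre-incubated with substrate and enzyme, then reacted 150 min at 24-27° C. Remaining ATP measured as luminescence with Kinase Glo, and IC50 derived from the signal.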

[1] = molecular target: PIM (PIM-1, PIM-2, and/or PIM-3); experiment: PIM-1, PIM-2 and PIM-3 inhibition, biochemical chemiluminescence assays (Kinase Glo, IC50 determination); conditions: Table 1 activity class; PIM refers to PIM-1, PIM-2, and/or PIM-3; read-out: PIM IC50 (Activity B)
[2] = Table 1 activity class, symbol given only if active, read-out: CDC7 IC50 (Activity A)
[3] = Table 1 activity class, symbol given only if active, read-out: CK2 IC50 (Activity C)
[4] = compounds in Table 1, read-out: CDC7 IC50 value

CDC7, sequence (O00311 whole entry): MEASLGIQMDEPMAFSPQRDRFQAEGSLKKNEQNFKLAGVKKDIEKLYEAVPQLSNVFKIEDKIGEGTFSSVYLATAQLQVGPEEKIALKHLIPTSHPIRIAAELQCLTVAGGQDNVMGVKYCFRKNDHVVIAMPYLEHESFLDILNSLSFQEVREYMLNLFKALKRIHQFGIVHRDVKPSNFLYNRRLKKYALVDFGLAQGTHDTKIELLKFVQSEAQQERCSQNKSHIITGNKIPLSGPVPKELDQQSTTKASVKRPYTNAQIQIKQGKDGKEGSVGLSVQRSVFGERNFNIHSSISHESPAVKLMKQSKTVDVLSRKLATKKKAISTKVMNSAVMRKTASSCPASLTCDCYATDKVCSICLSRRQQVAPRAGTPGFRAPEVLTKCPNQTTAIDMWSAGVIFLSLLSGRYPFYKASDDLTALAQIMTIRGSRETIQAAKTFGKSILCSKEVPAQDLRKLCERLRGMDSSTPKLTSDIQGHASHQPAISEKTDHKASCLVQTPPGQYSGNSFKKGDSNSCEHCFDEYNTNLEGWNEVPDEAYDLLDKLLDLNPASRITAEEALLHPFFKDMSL
CDC7, sequence (Q9UBU7 whole entry partner): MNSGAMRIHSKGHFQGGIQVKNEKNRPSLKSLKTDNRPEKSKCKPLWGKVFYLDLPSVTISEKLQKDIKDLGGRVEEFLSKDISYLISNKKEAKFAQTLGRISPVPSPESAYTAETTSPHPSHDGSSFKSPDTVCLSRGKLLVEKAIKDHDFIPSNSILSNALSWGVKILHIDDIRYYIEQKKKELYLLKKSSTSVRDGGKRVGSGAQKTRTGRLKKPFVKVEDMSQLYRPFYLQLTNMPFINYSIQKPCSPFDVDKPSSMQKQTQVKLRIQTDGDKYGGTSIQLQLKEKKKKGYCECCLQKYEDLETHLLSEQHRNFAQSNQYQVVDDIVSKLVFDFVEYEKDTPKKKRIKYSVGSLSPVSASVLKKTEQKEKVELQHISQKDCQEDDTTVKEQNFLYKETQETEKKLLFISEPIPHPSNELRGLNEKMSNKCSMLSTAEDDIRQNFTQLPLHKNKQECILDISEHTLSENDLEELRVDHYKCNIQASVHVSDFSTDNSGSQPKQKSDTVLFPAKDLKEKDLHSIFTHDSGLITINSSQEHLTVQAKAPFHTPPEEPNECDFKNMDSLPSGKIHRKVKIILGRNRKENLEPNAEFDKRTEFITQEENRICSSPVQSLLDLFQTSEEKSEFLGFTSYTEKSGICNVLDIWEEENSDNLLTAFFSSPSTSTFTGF

Structure (SMILES)	IC50 (CDC7; [2])	IC50 (CK2; [3])	IC50 [1]	IC50 (CDC7; [4])	IC50 (CDC7; CDC7 IC50 (Activity A), Table 1 activity class, symbol given only if active)	IC50 (CK2)
O=c1[nH]c(-c2cnc3cc(C4CCNCC4)nn3c2)nc2c1oc1ccc(Br)cc12 [Compound 377, 8-Bromo-2-(2-piperidin-4-ylpyrazolo[1,5-a]pyrimidin-6-yl)[1]benzofuro[3,2-d]pyrimidin-4(3H)-one]	< 10 µM	< 10 µM	< 10 µM	–	–	–
NC1CCCC(c2nc3c(oc4ccc(Br)cc43)c(=O)[nH]2)C1 (stereo not shown) [Compound 380, 2-(3-aminocyclohexyl)-8-bromo[1]benzofuro[3,2-d]pyrimidin-4(3H)-one]	< 10 µM	< 10 µM	< 10 µM	< 0.1 µM	–	–
O=C(N[C@@H]1CN(Cc2nc3c(oc4ccc(Br)cc43)c(=O)[nH]2)C[C@H]1O)C1CCNCC1 [Compound 388, N-{(3R,4R)-1-[(8-bromo-4-oxo-3,4-dihydro[1]benzofuro[3,2-d]pyrimidin-2-yl)methyl]-4-hydroxypyrrolidin-3-yl}piperidine-4-carboxamide]	< 10 µM	< 10 µM	< 10 µM	–	–	–
Nc1n[nH]c2ccc(C(=O)Nc3ccc(-c4nc5c(oc6ccc(Br)cc65)c(=O)[nH]4)c(Cl)c3)cc12 [Compound 393, ′3-amino-N-[4-(8-bromo-4-oxo-3,4-dihydro[1]benzofuro[3,2-d]pyrimidin-2-yl)-3-chlorophenyl]-1H-indazole-5-carboxamide]	< 10 µM	< 10 µM	< 10 µM	–	–	–
NCCNC(=O)c1ccc(C(=O)Nc2ccc(-c3nc4c(oc5ccc(Br)cc54)c(=O)[nH]3)c(Cl)c2)nc1 [Compound 394, ′N′5′-(2-aminoethyl)-N′2′-[4-(8-bromo-4-oxo-3,4-dihydro[1]benzofuro[3,2-d]pyrimidin-2-yl)-3-chlorophenyl]pyridine-2,5-dicarboxamide]	< 10 µM	< 10 µM	< 10 µM	–	–	–
O=c1[nH]c(CN2C3CCC2CC(O)C3)nc2c1oc1ccc(Br)cc12 (stereo not shown) [Compound 398, 8-bromo-2-[(3-hydroxy-8-azabicyclo[3.2.1]oct-8-yl)methyl][1]benzofuro[3,2-d]pyrimidin-4(3H)-one]	–	–	< 10 µM	–	< 10 µM	< 10 µM
O=c1[nH]c(CN2CCCC(O)C2)nc2c1oc1ccc(Br)cc12 (stereo not shown) [Compound 400, 8-bromo-2-[(3-hydroxypiperidin-1-yl)methyl][1]benzofuro[3,2-d]pyrimidin-4(3H)-one]	< 10 µM	< 10 µM	< 10 µM	< 0.1 µM	–	–
CN(CCO)Cc1nc2c(oc3ccc(Br)cc32)c(=O)[nH]1 [Compound 401, 8-bromo-2-{[(2-hydroxyethyl)(methyl)amino]methyl}[1]benzofuro[3,2-d]pyrimidin-4(3H)-one]	< 10 µM	< 10 µM	< 10 µM	< 0.1 µM	–	–
O=c1[nH]c(CN2CCC[C@H](O)C2)nc2c1oc1ccc(Br)cc12 [Compound 404, 8-bromo-2-{[(3S)-3-hydroxypiperidin-1-yl]methyl}[1]benzofuro[3,2-d]pyrimidin-4(3H)-one]	< 10 µM	< 10 µM	< 10 µM	< 0.1 µM	–	–
CCC1(O)CCN(Cc2nc3c(oc4ccc(Br)cc43)c(=O)[nH]2)C1 (stereo not shown) [Compound 407, 8-bromo-2-[(3-ethyl-3-hydroxypyrrolidin-1-yl)methyl][1]benzofuro[3,2-d]pyrimidin-4(3H)-one]	< 10 µM	< 10 µM	< 10 µM	< 0.1 µM	–	–
CO[C@@H]1CCN(Cc2nc3c(oc4ccc(Br)cc43)c(=O)[nH]2)C1 [Compound 408, 8-bromo-2-{[(3R)-3-(methyloxy)pyrrolidin-1-yl]methyl}[1]benzofuro[3,2-d]pyrimidin-4(3H)-one]	< 10 µM	< 10 µM	< 10 µM	< 0.1 µM	–	–
O=c1[nH]c(CN2CC3CCC2C3O)nc2c1oc1ccc(Br)cc12 (stereo not shown) [Compound 412, 8-bromo-2-[(7-hydroxy-2-azabicyclo[2.2.1]hept-2-yl)methyl][1]benzofuro[3,2-d]pyrimidin-4(3H)-one]	< 10 µM	< 10 µM	< 10 µM	< 0.1 µM	–	–
O=c1[nH]c(CN2CC3CCC2[C@H]3O)nc2c1oc1ccc(Br)cc12 (stereo partly drawn) [Compound 413, 8-bromo-2-{[(7S)-7-hydroxy-2-azabicyclo[2.2.1]hept-2-yl]methyl}[1]benzofuro[3,2-d]pyrimidin-4(3H)-one]	< 10 µM	< 10 µM	< 10 µM	< 0.1 µM	–	–
Cc1cc2oc3c(=O)[nH]c(CN4CC[C@H](O)C4)nc3c2cc1Br [Compound 420, 8-bromo-2-{[(3S)-3-hydroxypyrrolidin-1-yl]methyl}-7-methyl[1]benzofuro[3,2-d]pyrimidin-4(3H)-one]	< 10 µM	< 10 µM	< 10 µM	–	–	–
CN1[C@@H]2CC[C@H]1CN(Cc1nc3c(oc4ccc(Br)cc43)c(=O)[nH]1)CC2 [Compound 425, 8-bromo-2-{[(1S,6R)-9-methyl-3,9-diazabicyclo[4.2.1]non-3-yl]methyl}[1]benzofuro[3,2-d]pyrimidin-4(3H)-one]	< 10 µM	< 10 µM	< 10 µM	–	–	–
CN1CCCN(Cc2nc3c(oc4ccc(Br)cc43)c(=O)[nH]2)CC1 [Compound 426, 8-bromo-2-[(4-methyl-1,4-diazepan-1-yl)methyl][1]benzofuro[3,2-d]pyrimidin-4(3H)-one]	< 10 µM	< 10 µM	< 10 µM	< 0.1 µM	–	–

Continued, in another order:

IC50 (CDC7; [2])	IC50 (CK2; [3])	IC50 [1]	IC50 (CDC7; [4])	Structure (SMILES)	IC50 (CDC7; CDC7 IC50 (Activity A), Table 1 activity class, symbol given only if active)	IC50 (CK2)
< 10 µM	< 10 µM	< 10 µM	–	O=C(Nc1ccc(-c2nc3c(oc4ccc(Br)cc43)c(=O)[nH]2)c(Cl)c1)c1cnco1 [Compound 374, N-[4-(8-bromo-4-oxo-3,4-dihydro[1]benzofuro[3,2-d]pyrimidin-2-yl)-3-chlorophenyl]-1,3-oxazole-5-carboxamide]	–	–
< 10 µM	< 10 µM	< 10 µM	< 0.1 µM	O=c1[nH]c(-c2cccc3c2CCNC3)nc2c1oc1ccc(Br)cc12 [Compound 375, 8-Bromo-2-(1,2,3,4-tetrahydroisoquinolin-5-yl)[1]benzofuro[3,2-d]pyrimidin-4(3H)-one]	–	–
< 10 µM	< 10 µM	< 10 µM	–	CN(C)Cc1ccc(-c2nc3c(oc4ccc(Br)cc43)c(=O)[nH]2)c(Cl)c1 [Compound 381, 8-bromo-2-{2-chloro-4-[(dimethylamino)methyl]phenyl}[1]benzofuro[3,2-d]pyrimidin-4(3H)-one]	–	–
< 10 µM	< 10 µM	< 10 µM	–	O=c1[nH]c(-c2ccc(CNCCN3CCCCC3)cc2Cl)nc2c1oc1ccc(Br)cc12 [Compound 385, 8-bromo-2-(2-chloro-4-{[(2-piperidin-1-ylethyl)amino]methyl}phenyl)[1]benzofuro[3,2-d]pyrimidin-4(3H)-one]	–	–
< 10 µM	< 10 µM	< 10 µM	–	CC(C)(C)OC(=O)N1CCC(NCc2ccc(-c3nc4c(oc5ccc(Br)cc54)c(=O)[nH]3)c(Cl)c2)CC1 [Compound 386, 1,1-dimethylethyl 4-({[4-(8-bromo-4-oxo-3,4-dihydro[1]benzofuro[3,2-d]pyrimidin-2-yl)-3-chlorophenyl]methyl}amino)piperidine-1-carboxylate]	–	–
< 10 µM	< 10 µM	< 10 µM	–	Cn1cnc(C(=O)Nc2ccc(-c3nc4c(oc5ccc(Br)cc54)c(=O)[nH]3)c(Cl)c2)c1 [Compound 389, N-[4-(8-bromo-4-oxo-3,4-dihydro[1]benzofuro[3,2-d]pyrimidin-2-yl)-3-chlorophenyl]-1-methyl-1H-imidazole-4-carboxamide]	–	–
< 10 µM	< 10 µM	< 10 µM	–	Cn1ccnc1C(=O)Nc1ccc(-c2nc3c(oc4ccc(Br)cc43)c(=O)[nH]2)c(Cl)c1 [Compound 390, N-[4-(8-bromo-4-oxo-3,4-dihydro[1]benzofuro[3,2-d]pyrimidin-2-yl)-3-chlorophenyl]-1-methyl-1H-imidazole-2-carboxamide]	–	–
< 10 µM	< 10 µM	< 10 µM	–	Cn1ccc(C(=O)Nc2ccc(-c3nc4c(oc5ccc(Br)cc54)c(=O)[nH]3)c(Cl)c2)n1 [Compound 391]	–	–
< 10 µM	< 10 µM	< 10 µM	–	O=C(Nc1ccc(-c2nc3c(oc4ccc(Br)cc43)c(=O)[nH]2)c(Cl)c1)c1cnc2[nH]ccc2c1 [Compound 395, ′N-[4-(8-bromo-4-oxo-3,4-dihydro[1]benzofuro[3,2-d]pyrimidin-2-yl)-3-chlorophenyl]-1H-pyrrolo[2,3-b]pyridine-5-carboxamide]	–	–
< 10 µM	< 10 µM	< 10 µM	–	O=C(Nc1ccc(-c2nc3c(oc4ccc(Br)cc43)c(=O)[nH]2)c(Cl)c1)c1csnn1 [Compound 406, N-[4-(8-bromo-4-oxo-3,4-dihydro[1]benzofuro[3,2-d]pyrimidin-2-yl)-3-chlorophenyl]-1,2,3-thiadiazole-4-carboxamide]	–	–
< 10 µM	< 10 µM	< 10 µM	–	CNCc1ccc(-c2nc3c(oc4ccc(Br)cc43)c(=O)[nH]2)c(Cl)c1 [Compound 422, 8-bromo-2-{2-chloro-4-[(methylamino)methyl]phenyl}[1]benzofuro[3,2-d]pyrimidin-4(3H)-one]	–	–
< 10 µM	< 10 µM	< 10 µM	–	O=c1[nH]c(-c2ccc(CNC3CCCCC3)cc2Cl)nc2c1oc1ccc(Br)cc12 [Compound 427, 8-bromo-2-{2-chloro-4-[(cyclohexylamino)methyl]phenyl}[1]benzofuro[3,2-d]pyrimidin-4(3H)-one]	–	–
